# Data from patent US10683553B2, “Method for determining sensitivity to simultaneous inhibitor against PARP and Tankyrase” (THE ASAN FOUNDATION, priority 2015, dated 2020).
# System: SW620 human colon cancer cell line
# Assay: Trypan blue apoptosis with overexpressed mutant LIG4 (G833A or T1704C)
# Assay type: cell-based
# Settings: SW620 overexpressing LIG4 mutant G833A or T1704C vs control group (empty); 25 μM and 50 μM, 48 hours
# Source text: In order to analyze the degree of apoptosis of Compound A, which is a novel PARP/Tankyrase simultaneous inhibitor, when the p53 genotype is a mutant type and an LIG4 genotype is a mutant type, the present inventors treated a novel PARP/Tankyrase simultaneous inhibitor, Compound A, and the competitive drug PARP inhibitor, olaparib, while overexpressing an LIG4 mutant type in the SW620 human colon cancer cell line in which the p53 gene is a mutant type and an LIG4 genotype is a normal type. Then, the number of cells was measured by trypan blue staining assay to confirm the degree of apoptosis. The conditions and methods of the above experiment were as follows: SW620 human colon cancer cell line in which the p53 gene is a mutant type and the LIG4 gene is a normal type was cultured in RPMI1640 (10% FBS, 1% penicillin/streptomycin) and cultured in a 60 mm plate at 1×10^5 per well for 24 hours at 37° C. G833A or T1704C plasmid DNA in which an LIG4 genotype is a mutant type was infused into cells by means of Lipofectamin 2000 (Invitrogen), and then overexpressed at 37° C. for 48 hours. Then, the cells were treated with each of 25 μM and 50 μM of Compound A, which is a novel PARP/Tankyrase simultaneous inhibitor and olaparib, a competitive drug PARP inhibitor. After 48 hours of culturing, the number of cells was measured by trypan blue staining and the degree of apoptosis was confirmed.
smiles,measurement,value
"CCOc1cc(CN(C)C)cc2[nH]c(=O)c3c(c12)NCCC3 [Compound A, 8-[(dimethylamino)methyl]-10-ethoxy-1,2,3,4-tetrahydrobenzo[h][1,6]naphthyridin-5(6H)-one]",degree of apoptosis (trypan blue cell count),no change in the apoptosis
